From article PMC11085544, “Anticholinesterase Activity of Methanolic Extract of Amorpha fruticosa Flowers and Isolation of Rotenoids and Putrescine and Spermidine Derivatives” (Plants, 2024)

Assays:
Type in all cases: biochemical
[1] = biological target: T1, AChE (acetylcholinesterase) (Electrophorus electricus, UniProt O42275); experiment: Ellman colorimetric assay with electric eel AChE, % inhibition at […]; conditions: 100 µM
[2] = biological target: T1, AChE (acetylcholinesterase); experiment: Ellman colorimetric assay with electric eel AChE
[3] = biological target: T2, BuChE (butyrylcholinesterase) (Equus caballus, UniProt P81908); experiment: Ellman colorimetric assay with equine serum BuChE, % inhibition at […]
T2 construct: gene BCHE
T2 sequence (P81908 whole entry): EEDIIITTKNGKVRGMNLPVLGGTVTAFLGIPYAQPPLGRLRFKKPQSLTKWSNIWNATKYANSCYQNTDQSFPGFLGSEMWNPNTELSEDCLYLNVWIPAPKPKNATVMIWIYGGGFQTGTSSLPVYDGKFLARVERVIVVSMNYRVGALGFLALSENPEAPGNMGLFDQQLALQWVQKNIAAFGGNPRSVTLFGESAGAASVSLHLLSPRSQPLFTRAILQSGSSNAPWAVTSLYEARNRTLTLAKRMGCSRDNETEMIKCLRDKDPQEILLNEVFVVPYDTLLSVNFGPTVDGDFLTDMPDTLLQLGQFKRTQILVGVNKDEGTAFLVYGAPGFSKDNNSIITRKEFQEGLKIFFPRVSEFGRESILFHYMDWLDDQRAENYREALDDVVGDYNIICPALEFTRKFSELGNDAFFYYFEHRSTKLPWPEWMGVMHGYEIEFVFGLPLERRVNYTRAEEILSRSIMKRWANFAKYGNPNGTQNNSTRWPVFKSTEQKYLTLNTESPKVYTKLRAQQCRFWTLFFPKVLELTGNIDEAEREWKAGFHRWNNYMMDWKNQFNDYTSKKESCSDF

T1 sequence (O42275 24-633): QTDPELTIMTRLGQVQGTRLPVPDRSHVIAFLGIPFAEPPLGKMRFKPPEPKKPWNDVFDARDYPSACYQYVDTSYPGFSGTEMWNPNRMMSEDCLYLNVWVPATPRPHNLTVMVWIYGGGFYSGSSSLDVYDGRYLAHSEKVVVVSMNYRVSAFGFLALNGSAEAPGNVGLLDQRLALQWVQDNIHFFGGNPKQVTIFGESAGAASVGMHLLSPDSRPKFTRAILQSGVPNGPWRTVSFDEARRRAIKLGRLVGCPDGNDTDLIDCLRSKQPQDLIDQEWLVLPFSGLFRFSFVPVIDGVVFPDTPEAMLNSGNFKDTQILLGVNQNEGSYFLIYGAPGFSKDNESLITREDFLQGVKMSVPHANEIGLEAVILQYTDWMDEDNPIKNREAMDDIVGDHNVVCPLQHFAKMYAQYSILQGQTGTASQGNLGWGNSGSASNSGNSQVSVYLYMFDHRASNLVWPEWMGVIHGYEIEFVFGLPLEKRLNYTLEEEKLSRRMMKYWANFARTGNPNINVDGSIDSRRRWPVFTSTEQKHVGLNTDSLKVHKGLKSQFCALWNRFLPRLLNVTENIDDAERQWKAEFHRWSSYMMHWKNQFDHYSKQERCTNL

Molecule | % Inhibition of AChE [1] | IC50 [2] [µM] | inhibition at 100 µM [3] [%]
6-deoxyclitoriacetal [compound 7] | 37.9 ± 5.0 |  | 
O=C(/C=C/c1ccc(O)cc1)NCCCCN(CCCNC(=O)/C=C/c1ccc(O)cc1)C(=O)/C=C/c1ccc(O)cc1 [compound 5, N^1,N^5,N^10-(E)-tri-p-coumaroylspermidine] |  | 102 ± 8.1 | 43.8 ± 1.9
COC1=CC(=O)[C@]2(C=C1OC)OC[C@H]1Oc3c(ccc4c3C=CC(C)(C)O4)C(=O)[C@H]12 [compound 8, amorphispironone] |  |  | 37.6 ± 2.7
